Assay results published in US11780826B2 (Amgen Inc., priority 2017, dated 2023).

Each compound was assayed on Bovine cardiac myofibrils (assay: In vitro model of dose-dependent myofibril ATPase modulation (AC1.4, pyruvate kinase/lactate dehydrogenase-coupled ATPase assay at pCa25)). Settings: concentration at which ATPase activity was 1.4-fold higher than the bottom of the dose curve, mean of a minimum of two independent tests.
Assay type: biochemical
Outline: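 Absorbance at 340 nm tracked ATP hydrolysis through pyruvate kinase/lactate dehydrogenase coupling (0.5 mM NADH, 1.5 mM PEP). Myofibrils from detergent-homogenized bovine heart, 1 mM ATP, pH 6.80, EGTA/CaCl2 buffering. Dose-response curves fitted with a four-parameter Hill equation.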

`CS(=O)(=O)c1ccc(C(=O)N2CCC[C@@H]2C(=O)NC(c2ccc(C(F)(F)F)cc2F)C2CC2)cn1` (stereo partly drawn) [Example 569, (2R)-N-(cyclopropyl(2-fluoro-4-(trifluoromethyl)phenyl)methyl)-1-(6-(methylsulfonyl)nicotinoyl)pyrrolidine-2-carboxamide] and `CN(C)c1cccc(C(=O)N2CCC[C@@H]2C(=O)N[C@@H](c2ccc(C(F)(F)F)cc2F)C2CC2)c1` [Example 584, N-((R)-cyclopropyl(2-fluoro-4-(trifluoromethyl)phenyl)methyl)-1-(3-(dimethylamino)benzoyl)-D-prolinamide] are within 1.5-fold of each other in AC1.4: 3.182 µM for the first, 3.397 µM for the second.

`CS(=O)(=O)c1cccc(C(=O)N2[C@@H](C(=O)N[C@@H](c3cc(F)c(C#N)cc3F)C3CC3)C[C@H]3C[C@H]32)c1` [Example 570, (1R,3R,5R)-N-((R)-(4-cyano-2,5-difluorophenyl)(cyclopropyl)methyl)-2-(3-(methylsulfonyl)benzoyl)-2-azabicyclo[3.1.0]hexane-3-carboxamide] and `CS(=O)(=O)c1cccc(C(=O)N2[C@@H](C(=O)N[C@@H](c3ccc(C(F)(F)F)cc3)C3CC3)C[C@H]3C[C@H]32)c1` [Example 596, (1R,3R,5R)-N-((R)-cyclopropyl(4-(trifluoromethyl)phenyl)methyl)-2-(3-(methylsulfonyl)benzoyl)-2-azabicyclo[3.1.0]hexane-3-carboxamide] are within 1.5-fold of each other in AC1.4: 3.1825 µM for the first, 2.9335 µM for the second.

`Cc1ccccc1CNC(=O)[C@H]1CCCN1C(=O)[C@H]1CCCN(S(=O)(=O)N2CC(C#N)C2)C1` [Example 571, 1-(((3S)-1-((3-cyano-1-azetidinyl)sulfonyl)-3-piperidinyl)carbonyl)-N-(2-methylbenzyl)-D-prolinamide] and `N#CC1CN(S(=O)(=O)N2CCC[C@H](C(=O)N3CCC[C@@H]3C(=O)NCc3ccccc3Cl)C2)C1` [Example 574, N-(2-chlorobenzyl)-1-(((3S)-1-((3-cyano-1-azetidinyl)sulfonyl)-3-piperidinyl)carbonyl)-D-prolinamide] are within 1.5-fold of each other in AC1.4: 3.1845 µM for the first, 3.2325 µM for the second.

`C[C@@H](NC(=O)[C@H]1[C@@H]2C[C@@H]2CN1C(=O)c1cccc(S(=O)(=O)N(C)C)c1)c1ccc(C(F)(F)F)cc1` [Example 572, (1R,2R,5S)-3-(3-(dimethylsulfamoyl)benzoyl)-N-((1R)-1-(4-(trifluoromethyl)phenyl)ethyl)-3-azabicyclo[3.1.0]hexane-2-carboxamide] and `CS(=O)(=O)c1cccc(C(=O)N2CC[C@@H](F)[C@@H]2C(=O)N[C@@H](c2ccc(C(F)(F)F)cc2F)C2CC2)c1` [Example 589, (3R)-N-((R)-cyclopropyl(2-fluoro-4-(trifluoromethyl)phenyl)methyl)-3-fluoro-1-(3-(methylsulfonyl)benzoyl)-D-prolinamide] are within 1.5-fold of each other in AC1.4: 3.205 µM for the first, 2.881 µM for the second.

`O=C(N[C@@H](c1ccc(C(F)(F)F)cc1F)C1CC1)[C@H]1C[C@H]2C[C@H]2N1C(=O)c1cc(C(F)(F)F)ccn1` [Example 573, (1R,3R,5R)-N-((R)-cyclopropyl(2-fluoro-4-(trifluoromethyl)phenyl)methyl)-2-((4-(trifluoromethyl)-2-pyridinyl)carbonyl)-2-azabicyclo[3.1.0]hexane-3-carboxamide] and `O=C(N[C@@H](c1cc(F)c(C(F)(F)F)cc1F)C1CC1)[C@H]1C[C@H]2C[C@H]2N1C(=O)c1cc(C2CC2)ccn1` [Example 593, (1R,3R,5R)-N-((R)-cyclopropyl(2,5-difluoro-4-(trifluoromethyl)phenyl)methyl)-2-((4-cyclopropyl-2-pyridinyl)carbonyl)-2-azabicyclo[3.1.0]hexane-3-carboxamide] are within 1.5-fold of each other in AC1.4: 3.224 µM for the first, 3.49 µM for the second.

`CN1CC(C(NC(=O)[C@H]2C[C@H]3C[C@H]3N2C(=O)c2cccc(S(C)(=O)=O)c2)c2ccc(C(F)(F)F)cc2F)CC1=O` (stereo partly drawn) [Example 575, (1R,3R,5R)-N-((2-fluoro-4-(trifluoromethyl)phenyl)(1-methyl-5-oxopyrrolidin-3-yl)methyl)-2-(3-(methylsulfonyl)benzoyl)-2-azabicyclo[3.1.0]hexane-3-carboxamrde] and `CS(=O)(=O)c1cccc(C(=O)N2CCOC[C@@H]2C(=O)N[C@@H](c2ccc(C(F)(F)F)cc2F)C2CC2)c1` [Example 576, (3R)-N-((R)-cyclopropyl(2-fluoro-4-(trifluoromethyl)phenyl)methyl)-4-(3-(methylsulfonyl)benzoyl)-3-morpholinecarboxamide] are within 1.5-fold of each other in AC1.4: 3.245 µM for the first, 2.838 µM for the second.

`O=C(N[C@@H](c1ccc(C(F)(F)F)cc1F)C1CC1)[C@H]1CCCN1C(=O)c1cccc(C2(F)COC2)c1` [Example 577, N—((R)-cyclopropyl(2-fluoro-4-(trifluoromethyl)phenyl)methyl)-1-(3-(3-fluoro-3-oxetanyl)benzoyl)-D-prolinamide] and `CS(=O)(=O)c1cccc(C(=O)N2CCCC[C@@H]2C(=O)N[C@@H](c2ccc(C(F)F)cc2F)C2CC2)c1` [Example 578, (2R)-N-((R)-cyclopropyl(4-(difluoromethyl)-2-fluorophenyl)methyl)-1-(3-(methylsulfonyl)benzoyl)-2-piperidinecarboxamide] are within 1.5-fold of each other in AC1.4: 3.2945 µM for the first, 3.3475 µM for the second.

`O=C(NCc1ccc(C(F)(F)F)cc1)[C@H]1CCCN1C(=O)[C@H]1CCCN(S(=O)(=O)N2CC(Oc3ccncc3)C2)C1` [Example 580, 1-(((3S)-1-((3-(4-pyridinyloxy)-1-azetidinyl)sulfonyl)-3-piperidinyl)carbonyl)-N-(4-(trifluoromethyl)benzyl)-D-prolinamide] and `O=C(NCc1ccc(C(F)(F)F)cc1)[C@H]1CCCN1C(=O)[C@H]1CCCN(S(=O)(=O)N2CC(n3cccn3)C2)C1` [Example 582, 1-(((3S)-1-((3-(1H-pyrazol-1-yl)-1-azetidinyl)sulfonyl)-3-piperidinyl)carbonyl)-N-(4-(trifluoromethyl)benzyl)-D-prolinamide] are within 1.5-fold of each other in AC1.4: 3.3545 µM for the first, 3.371 µM for the second.

`N#CC1CN(S(=O)(=O)N2CCC[C@H](C(=O)N3C[C@@H](O)C[C@@H]3C(=O)NCc3ccc(C(F)(F)F)cc3)C2)C1` [Example 581, (4S)-1-(((3S)-1-((3-cyano-1-azetidinyl)sulfonyl)-3-piperidinyl)carbonyl)-4-hydroxy-N-(4-(trifluoromethyl)benzyl)-D-prolinamide] and `N#C[C@H]1C[C@H](S(=O)(=O)N2CCC[C@H](C(=O)N3CCC[C@@H]3C(=O)NCc3ccc(C(F)(F)F)cc3)C2)C1` [Example 587, 1-(((3S)-1-((trans-3-cyanocyclobutyl)sulfonyl)-3-piperidinyl)carbonyl)-N-(4-(trifluoromethyl)benzyl)-D-prolinamide] are within 1.5-fold of each other in AC1.4: 3.364 µM for the first, 3.4385 µM for the second.

`COc1cccc(CNC(=O)[C@H]2CCCN2C(=O)[C@H]2CCCN(S(=O)(=O)N3CC(C#N)C3)C2)c1Cl` [Example 583, N-(2-chloro-3-methoxybenzyl)-1-(((3S)-1-((3-cyano-1-azetidinyl)sulfonyl)-3-piperidinyl)carbonyl)-D-prolinamide] and `COc1ccc(CNC(=O)[C@H]2CCCN2C(=O)[C@H]2CCCN(S(=O)(=O)N3CC(C#N)C3)C2)cc1Cl` [Example 591, N-(3-chloro-4-methoxybenzyl)-1-(((3S)-1-((3-cyano-1-azetidinyl)sulfonyl)-3-piperidinyl)carbonyl)-D-prolinamide] are within 1.5-fold of each other in AC1.4: 3.3715 µM for the first, 3.476 µM for the second.

`COc1ccc(C(C)NC(=O)[C@H]2CCCN2C(=O)[C@H]2CCCN(S(=O)(=O)N3CC(C#N)C3)C2)cc1F` (stereo partly drawn) [Example 585, 1-(((3S)-1-((3-cyano-1-azetidinyl)sulfonyl)-3-piperidinyl)carbonyl)-N-((1R)-1-(3-fluoro-4-methoxyphenyl)ethyl)-D-prolinamide,1-(((3S)-1-((3-cyano-1-azetidinyl)sulfonyl)-3-piperidinyl)carbonyl)-N-((1S)-1-(3-fluoro-4-methoxyphenyl)ethyl)-D-prolinamide] and `Cc1cc(C(C)NC(=O)[C@H]2CCCN2C(=O)[C@H]2CCCN(S(=O)(=O)N3CC(C#N)C3)C2)ccc1F` (stereo partly drawn) [Example 592, (2R)-1-((S)-1-((3-cyanoazetidin-1-yl)sulfonyl)piperidine-3-carbonyl)-N-(1-(4-fluoro-3-methylphenyl)ethyl)pyrrolidine-2-carboxamide] are within 1.5-fold of each other in AC1.4: 3.413 µM for the first, 3.477 µM for the second.

`N#CC1CN(S(=O)(=O)N2CCC[C@H](C(=O)N3CCC[C@@H]3C(=O)NCC3CCC(C(F)(F)F)CC3)C2)C1` (stereo partly drawn) [Example 590, 1-(((3S)-1-((3-cyano-1-azetidinyl)sulfonyl)-3-piperidinyl)carbonyl)-N-((cis-4-(trifluoromethyl)cyclohexyl)methyl)-D-prolinamide,1-(((3S)-1-((3-cyano-1-azetidinyl)sulfonyl)-3-piperidinyl)carbonyl)-N-((4-(trifluoromethyl)cyclohexyl)methyl)-D-prolinamide] and `CC(NC(=O)[C@H]1CCCN1C(=O)[C@H]1CCCN(S(=O)(=O)N2CC(C#N)C2)C1)c1ccc(OC(F)F)cc1` (stereo partly drawn) [Example 594, (2R)-1-((S)-1-((3-cyanoazetidin-1-yl)sulfonyl)piperidine-3-carbonyl)-N-(1-(4-(difluoromethoxy)phenyl)ethyl)pyrrolidine-2-carboxamide] are within 1.5-fold of each other in AC1.4: 3.4675 µM for the first, 3.505 µM for the second.

`C[C@@H](NC(=O)[C@H]1CCCN1C(=O)c1cccc(S(=O)(=O)N2CC3(CC3)C2)c1)c1ccc(Cl)cc1` [Example 595, 1-((3-(5-azaspiro[2.3]hex-5-ylsulfonyl)phenyl)carbonyl)-N-((1R)-1-(4-chlorophenyl)ethyl)-D-prolinamide] and `C[C@@H](NC(=O)[C@H]1CCCN1C(=O)[C@H]1CCCN(S(=O)(=O)N2CC(C)(O)C2)C1)c1ccc(C(F)(F)F)cc1F` [Example 597, N-((1R)-1-(2-fluoro-4-(trifluoromethyl)phenyl)ethyl)-1-(((3S)-1-((3-hydroxy-3-methyl-1-azetidinyl)sulfonyl)-3-piperidinyl)carbonyl)-D-prolinamide] are within 1.5-fold of each other in AC1.4: 3.5165 µM for the first, 3.5295 µM for the second.
